Read-outs that look alike come from different tables or passages of the source.
Tests used:
rabbit eye = settings: cited from earlier work
[1] = test system: lasered (hypertensive) eyes of conscious cynomolgus monkeys; test: Acute IOP Response in Lasered (Hypertensive) Eyes of Conscious Cynomolgus Monkeys; type: in vivo, cynomolgus monkey; settings: topical, one 30 μL aliquot, dose (R)-DOI 100 μg, α-methylserotonin 250 μg, 5-methoxy-α-methyltryptamine 300 μg, serotonin 250 μg
Description: Acute IOP Response in Lasered (Hypertensive) Eyes of Conscious Cynomolgus Monkeys
Intraocular pressure (IOP) was determined with an Alcon Pneumatonometer after light corneal anesthesia with 0.1% proparacaine. Eyes were washed with saline after each measurement. After a baseline IOP measurement, test compound was instilled in one 30 μL aliquot to the right eyes only of nine cynomolgus monkeys. Vehicle was instilled in the right eyes of six additional animals. Subsequent IOP measurements were taken at 1, 3, and 6 hours.

human subjects = settings: cited from earlier work
5HT2 receptor = 5HT2 receptor (Rattus norvegicus, UniProt P14842); test: cell-based
Description: Confluent cells are exposed for 24-30 hrs to 1.5 μCi [^3H]-myo-inositol (18.3 Ci/mmol) in 0.5 ml of serum-free medium. Cells are then rinsed once with DMEM/F-12 containing 10 mM LiCl prior to incubation with the test agent (or solvent as the control) in 1.0 ml of the same medium for 1 hr at 37° C., after which the medium is aspirated and 1 ml of cold 0.1 M formic acid added to stop the reaction. […] The eluate (4 ml) is collected, mixed with 15 ml scintillation fluid, and the total [^3H]-IPs determined by scintillation counting on a beta-counter.

5HT2 receptor subtypes = settings: 5HT2 agonist, rank order of subtypes; cited from earlier work
[2] = man, dosed systemically; cited from earlier work
glaucomatous monkeys = settings: cited from earlier work
[3] = rabbit, administered intracamerally

Chain of 5HT2 receptor (P14842 whole entry): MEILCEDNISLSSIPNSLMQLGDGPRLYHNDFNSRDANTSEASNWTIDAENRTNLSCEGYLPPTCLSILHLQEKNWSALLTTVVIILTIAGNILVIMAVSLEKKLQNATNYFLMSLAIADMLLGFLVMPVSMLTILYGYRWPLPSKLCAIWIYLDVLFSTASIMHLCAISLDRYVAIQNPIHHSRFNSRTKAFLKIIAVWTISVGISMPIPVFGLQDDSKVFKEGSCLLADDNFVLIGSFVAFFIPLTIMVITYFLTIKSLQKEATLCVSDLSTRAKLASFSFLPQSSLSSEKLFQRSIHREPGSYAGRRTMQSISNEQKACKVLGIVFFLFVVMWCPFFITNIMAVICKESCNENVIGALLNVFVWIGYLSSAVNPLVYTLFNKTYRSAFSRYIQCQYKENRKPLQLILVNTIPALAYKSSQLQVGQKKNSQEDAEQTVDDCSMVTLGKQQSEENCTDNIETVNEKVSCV

SMILES	Percent IOP Reduction ± SEM, 1 hour after dose [1]	Percent IOP Reduction ± SEM, 3 hours after dose [1]	Percent IOP Reduction ± SEM, 6 hours after dose [1]	effect on IOP (rabbit eye; rabbits, route not stated)	further results
NCCc1c[nH]c2ccc(O)cc12 [Serotonin, 5-hydroxytryptamine]	13.3 ± 5.31%	18.0 ± 5.12%	2.0 ± 7.39%		blood-aqueous barrier (rabbit eye; [3]): caused breakdown of the blood-aqueous barrier; effect on IOP (rabbit eye; [3]): increase in IOP
CC[C@@H](CO)NC(=O)[C@@H]1C=C2c3cccc4c3c(cn4C)C[C@H]2N(C)C1 [Methysergide]				lowered IOP	
O=C(c1ccc(F)cc1)C1CCN(CCn2c(=O)[nH]c3ccccc3c2=O)CC1 [Ketanserin]				lowers IOP	effect on IOP (human subjects; man, route not stated): lowers IOP
NCCc1c[nH]c2ccc(C(N)=O)cc12 [5-carboxamidotryptamine]					effect on intraocular pressure (IOP) (rabbit eye; rabbit, topically applied): raise intraocular pressure
COc1ccc2[nH]cc(CC(C)N)c2c1 (stereo not drawn) [5-Methoxy-α-methyltryptamine, 5-methoxy-α-methyltryptamine]	21.6 ± 5.05%	35.2 ± 6.12%	33.4 ± 5.39%		Emax (5HT2 receptor; A7R5, read-out: Efficacy (Emax, %)): 107%
CNCCC(Oc1ccc(C(F)(F)F)cc1)c1ccccc1 (stereo not shown) [fluoxetine]					effect on IOP (human subjects; human subjects, oral administration): raises IOP
CC(N)Cc1c[nH]c2ccc(O)cc12 (stereo not drawn) [α-Methylserotonin, α-methyl-serotonin]	14.2 ± 4.39%	25.8 ± 5.16%	30.8 ± 7.72%		receptor subtype selectivity (5HT2 receptor subtypes): 5HT2B>5HT2C>5HT2A
COc1cc(CC(C)N)c(OC)cc1I (stereo not shown) [DOI]					CNS side effects [2]: cause central nervous system (CNS) side effects
COc1cc(C[C@@H](C)N)c(OC)cc1I [(R)-DOI, (R)4-iodo-2,5 dimethoxy-α-methyl-benzeneethanamine]	11.0 ± 4.98%	25.3 ± 2.97%	34.4 ± 4.98%		EC50 (5HT2 receptor): 0.277 ± 0.035 µM
CCCN(CCC)C1CCc2cccc(O)c2C1 (stereo not shown) [8-hydroxy DPAT]				lower IOP	
COc1cccc(CCc2ccccc2OCC(CN(C)C)OC(=O)CCC(=O)O)c1 (stereo not shown) [Saprogrelate]					effect on IOP (human subjects; man, dosed topically or orally): lowers IOP; effect on IOP (rabbit eye; rabbits, dosed topically or orally): lowers IOP
c1ccc2c(c1)OC[C@H](CNCCCOc1ccc3c(c1)OCO3)O2 [MKC-242]				lower IOP	
COc1ccccc1N1CCN(CCCNc2c(C)c(=O)n(C)c(=O)n2C)CC1 [5-methylurapidil]					effect on IOP (glaucomatous monkeys): lowered IOP
